These are literature values, as cited in patent publication US11298425B2, “Delivery of a chemotherapy agent across the blood-brain barrier” (ROWLESBIOMED, LLC, priority 2018, dated 2022).

The conditions of data set [1]: rats.
The conditions of data set [2]: mice.
For data set [3] the following is noted: pigs.
For data set [4] the following is noted: humans, measured in the tissues of human cadavers.

Where two headings read alike, the source gives them in different places.

In the case of `CCCCCc1cc(O)c2c(c1)OC(C)(C)[C@@H]1CCC(C)=C[C@@H]21` [THC, tetrahydrocannabinol], the brain-to-blood ratio in data set [1] was 2.0; in data set [2], 1.6; in data set [3], 2.6; in data set [4], 3.0.

`CCCc1cc(O)c2c(c1)OC(C)(C)[C@@H]1CCC(C)=C[C@@H]21` [THCV, tetrahydrocannabivarin]: the brain-to-blood ratio entry in data set [2] is given as “even higher than THC”.
